Assay [1] deals with Pseudomonas aeruginosa ATCC 27853. Nature of the assay: In vitro bactericidal assay, P. aeruginosa ATCC 27853 (FIGS. 12-14). Format: cell-based. The settings on record: for activity in in vitro killing assays, in words / reduction of the CFU: FIG. 14; for reduction of the CFU: peptides at 150, 75, 37.5 μg/ml; for reduction of CFU/ml: highest peptide concentration. Here is the method:
Each of the test peptides was used at 25, 12.5 6.25, and 3.12 μM. The gentamicin was used at 4 μg/ml. 1×10^6/ml Pseudomonas aeruginosa ATCC® 27853™ (American Type Culture Collection, Manassas, Va.) were incubated with the peptides, negative buffer control (tryptone saline), and positive control gentamicin for 180 minutes at pH 7.2. 50 μl aliquots were plated out on agar plates and incubated overnight. Colony forming units were counted after overnight incubation and CFU/ml calculated.
Each of the test peptides was used at 25, 12.5, 6.25, and 3.12 μM. The gentamicin was used at 4 μg/ml. 1×10^6/ml Pseudomonas aeruginosa ATCC® 27853™ (American Type Culture Collection, Manassas, Va.) were incubated with the peptides, negative buffer control (tryptone saline), and positive control gentamicin for 180 minutes at pH 5.5. 50 μl aliquots were plated out on agar plates and incubated overnight. Colony forming units were counted after overnight incubation and CFU/ml calculated.
FIG. 14 is a comparison of bactericidal activity of CAP37 peptides 120-146WR (SEQ ID NO:30), 120-146WH (SEQ ID NO:31), 120-146QR (SEQ ID NO:28), 120-146QH (SEQ ID NO:29), 120-146QR-5RMP (SEQ ID NO:32), and 120-146QH-5RMP (SEQ ID NO:33) for Pseudomonas aeruginosa ATCC® 27853™ (American Type Culture Collection, Manassas, Va.). 1×10^6/ml Pseudomonas aeruginosa ATCC® 27853™ were incubated with the peptides at 150, 75, and 37.5 μg/ml and negative buffer control (tryptone saline) for 180 minutes at pH 5.5. 50 μl aliquots were plated out on agar plates and incubated overnight. Colony forming units were counted after overnight incubation and CFU/ml calculated.
For FIGS. 10-13, in vitro bactericidal assays were performed using a starting inoculum of 1×10^6 CFU/ml of the bacterial suspension. The CFU remaining at the end of the 60-180 minute incubation was determined, and the data was plotted as log reduction in CFU/ml.
In particular, each of the test peptides (CAP37 peptides 120-146WR, 120-146WH, and 95-122 (SEQ ID NOS:30, 31, and 26, respectively)) was used at 25, 12.5, 6.25, and 3.12 μM. Gentamicin was used at 4 μg/ml. 1×10^6/ml Acinetobacter baumannii ATCC® BAA-747™ or Pseudomonas aeruginosa ATCC® 27853™ (American Type Culture Collection, Manassas, Va.) were incubated with the peptides, negative buffer control (tryptone saline), and positive control gentamicin at pH 5.5 or 7.2. A 60 minute incubation was used for Acinetobacter baumannii ATCC® BAA-747™, while a 180 minute incubation was used for Pseudomonas aeruginosa ATCC® 27853™. 50 μl aliquots were plated out on agar plates and incubated overnight. Colony forming units were counted after overnight incubation and CFU/ml calculated.
For FIG. 14, 1×10^6/ml Pseudomonas aeruginosa ATCC® 27853™ were incubated with each of the test peptides (CAP37 peptides 120-146WR, 120-146WH, 120-146QR, 120-146QH, 120-146QR-5RMP, and 120-146QH-5RMP (SEQ ID NOS:30, 31, 28, 29, 32, and 33, respectively)) at 150, 75, and 37.5 μg/ml, or negative buffer control (tryptone saline), for 180 minutes at pH 5.5. 50 μl aliquots were plated out on agar plates and incubated overnight. Colony forming units were counted after overnight incubation and CFU/ml calculated.

In assay [2] the test system is full thickness excisional wounds. Nature of the assay: Swine full thickness excisional dermal wound model. To be noted: for Mean Wound Healing (%): topical 3 mg/ml, 0.20 ml daily; for percentage of wound healing vs saline control, in words: 3 mg/ml. Type of assay: in vivo. Here is the method:
In this Example, peptide compounds of the presently disclosed inventive concepts were evaluated as to their activity on the dermal wound healing process in a clinically relevant swine full thickness excisional wound model. Three different peptide formulations (Group B, Peptide 95-122 (SEQ ID NO:26); Group C, Peptide 120-146WH (SEQ ID NO:31); and Group D, Peptide 120-146QH-5RMP (SEQ ID NO:33)) were each evaluated at the same concentration (3 mg/ml). Sterile saline served as the control (Group A).
(§1) Full thickness excisional wounds were induced on the dorsum of swine (N=3) using a 1.0 cm biopsy punch. Treatments were administered (0.20 ml) to each wound (N=6 wounds per group), and the wounds were dressed with standard occlusive dressing ([…]™, 3M Corporation, St. Paul, Minn.). Treatments were reapplied daily and dressings changed. Clinical wound healing observations and wound area (2 mm) measurements were performed on days 0, 3, 5, 7, 10, and 14 post-wounding. Wound area (2 mm) data were expressed as percentage (%) of wound healing. Animals were terminated on day 14 with wounds harvested and processed for histological evaluation. […] All peptide formulation treatment groups healed faster with greater rate of closure and re-epithelialization over time, as compared to the saline control (Group A).

Assay [3] shares this test system. Put plainly: Histopathology of swine dermal wounds. The settings on record: for epidermal resurfacing and maturation vs saline control, in words: day 14 post-wounding; for Angiogenesis, mean histopathology score / Epithelization, mean histopathology score / Granulation, mean histopathology score / Inflammation, mean histopathology score: wounds harvested on day 14, 3 mg/ml. The arrangement: Inflammation, mean histopathology score / Angiogenesis, mean histopathology score / Granulation, mean histopathology score / Epithelization, mean histopathology score: scale not given here. Type of assay: in vivo. Here is the method: The characteristics that were measured are required to indicate features of a well-healed wound. Inflammation should be low and re-epithelialization high.
as §1
The histology correlated with the clinical observations. […] There were minimal differences in the amount or character of granulation tissue, inflammation, and angiogenesis. All the wounds were well filled and vascularized.

Setting [4] is: pH 7.2, 180 minutes, 120-146WR/WH at 25 μM, 95-122 at 3.12-25 μM.

With “LDREANLTSSVTILPLPLQNATVEAGTR (listed as Homo sapiens) [Peptide 95-122]”, the “bactericidal activity, in words” value is listed as “not active” in assay [1] (pH 5.5, 180 minutes, peptides 3.12-25 μM, gentamicin 4 μg/ml) and “not active” in assay [1] (setting [4]). Further, the “Mean Wound Healing (%)” value in assay [2] (Day 0) worked out at 0.0%; in assay [2] (Day 3), 28.9%; in assay [2] (Day 5), 41.5%; in assay [2] (Day 7) it was 70.8%; in assay [2] (Day 10), 99.7%; in assay [2] (Day 14), 100.0%. In assay [2] (days 5, 7, 10, and 14), the “percentage of wound healing vs saline control, in words” value is reported as “significant (p<0.05) increase in the percentage of wound healing”. Besides, the “epidermal resurfacing and maturation vs saline control, in words” value in assay [3] was “greater extent of epidermal resurfacing and maturation of the epidermis”. Also, the “Angiogenesis, mean histopathology score” value in assay [3] is recorded as 2.3. Also, the “Epithelization, mean histopathology score” value in assay [3] was 4.0. Further, the “Granulation, mean histopathology score” value in assay [3] amounted to 4.0. The “Inflammation, mean histopathology score” value in assay [3] was 0.5.

Consider “GTRCQVAGWGSWHSGGRLSRFPRFVNV (derivative of peptide of CAP37 protein) [Peptide 120-146WH]”, for which the “activity in in vitro killing assays, in words” value in assay [1] (pH 5.5, 180 minutes) is “strongly active”. Also, in assay [1] (pH 5.5, 180 minutes), the “reduction of the CFU” value amounted to 6 logs. Also, in assay [1] (setting [4]), the “bactericidal activity, in words” value is reported as “as effective as the standard antibiotic gentamicin”. Also, the “reduction of CFU/ml” value in assay [1] (pH 7.2, 180 minutes) was 6 logs. For the same sequence, the “Mean Wound Healing (%)” value in assay [2] (Day 0) was 0.0%; in assay [2] (Day 3) it was 22.1%; in assay [2] (Day 5), 35.9%; in assay [2] (Day 7), 59.7%; in assay [2] (Day 10), 93.5%; in assay [2] (Day 14), 97.5%. The “percentage of wound healing vs saline control, in words” value in assay [2] (days 10 and 14 post-wounding) is given as “significant (p<0.05) increase in the percentage of wound healing”. Further, the “epidermal resurfacing and maturation vs saline control, in words” value in assay [3] is “greater extent of epidermal resurfacing and maturation of the epidermis”. Further, the “Angiogenesis, mean histopathology score” value in assay [3] turned out to be 1.7. In assay [3], the “Epithelization, mean histopathology score” value came to 3.7. Also, the “Granulation, mean histopathology score” value in assay [3] was 4.0. Besides, the “Inflammation, mean histopathology score” value in assay [3] is 0.5.

With “GTRCQVAGWGSWRSGGRLSRFPRFVNV (derivative of peptide of Homo sapiens CAP37 protein) [Peptide 120-146WR]”, in assay [1] (120-146WR at 25 μM, gentamicin 4 μg/ml), the “bactericidal activity, in words” value is on record as “highly active”. Further, in assay [1] (pH 5.5, 180 minutes), the “activity in in vitro killing assays, in words” value is listed as “strongly active” and the “reduction of the CFU” value turned out to be 6 logs. Besides, the “bactericidal activity, in words” value in assay [1] (setting [4]) is given as “as effective as the standard antibiotic gentamicin”. Also, in assay [1] (pH 7.2, 180 minutes), the “reduction of CFU/ml” value stood at 6 logs.
